Laboratory results taken from PubChem BioAssay AID1918953 (Molecular Pharmacology Branch, DTP, NCI, 2023).

Test system: MDA-MB-231 complex spheroid viability
Experiment: Anticancer human tumor MDA-MB-231/ATCC cell line growth inhibition;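 also: drug exposure lasted 7 days starting on day 3 of spheroid growth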
Conditions: for IC50: curve of first compound; for viability, T/C: stronger effect = lower value
How it was run: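 Multicellular complex spheroids of tumor cells with human endothelial cells (HUVEC) and mesenchymal stem cells; the LSD1 inhibitor iadademstat was combined with standard-of-care or investigational agents. Top concentration at or near clinical Cmax, half-log dilutions; final DMSO ≤0.25%.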

Work on `Nc1ccccc1NC(=O)c1ccc(CNC(=O)OCc2cccnc2)cc1` + NC1CC1c1ccc(-c2cccc(O)c2)cc1 yielded an IC50 (second compound 0.1 µM) of 13.3 nM, an IC50 (second compound 0.316 µM) of 10.5 nM and an IC50 (second compound 1 µM) of less than 9.49 nM. The IC50 (second compound 3.16 µM) was less than 9.49 nM, the IC50 (second compound 10 µM) was less than 9.49 nM and the viability, T/C (second compound 0.1 µM, first compound 0.00949 µM) was 56.6%. For the same compound, the viability, T/C (second compound 0.1 µM, first compound 0.03 µM) was 34.9%, the viability, T/C (second compound 0.1 µM, first compound 0.0949 µM) was 22.7% and the viability, T/C (second compound 0.1 µM, first compound 0.3 µM) was 12.2%. It also gave a viability, T/C (second compound 0.1 µM, first compound 0.949 µM) of 2.07%, a viability, T/C (second compound 0.1 µM, first compound 3 µM) of 0.17% and a viability, T/C (second compound 0.316 µM, first compound 0.00949 µM) of 52.7%. It also gave a viability, T/C (second compound 0.316 µM, first compound 0.03 µM) of 31.5%, a viability, T/C (second compound 0.316 µM, first compound 0.0949 µM) of 21% and a viability, T/C (second compound 0.316 µM, first compound 0.3 µM) of 10.6%. The viability, T/C (second compound 0.316 µM, first compound 0.949 µM) was 1.85%, the viability, T/C (second compound 0.316 µM, first compound 3 µM) was 0.16% and the viability, T/C (second compound 1 µM, first compound 0.00949 µM) was 43.3%. It also gave a viability, T/C (second compound 1 µM, first compound 0.03 µM) of 27%, a viability, T/C (second compound 1 µM, first compound 0.0949 µM) of 21.7% and a viability, T/C (second compound 1 µM, first compound 0.3 µM) of 9.99%. It also gave a viability, T/C (second compound 1 µM, first compound 0.949 µM) of 1.67%, a viability, T/C (second compound 1 µM, first compound 3 µM) of 0.15% and a viability, T/C (second compound 3.16 µM, first compound 0.00949 µM) of 46.3%. The viability, T/C (second compound 3.16 µM, first compound 0.03 µM) was 31.6%, the viability, T/C (second compound 3.16 µM, first compound 0.0949 µM) was 21.3% and the viability, T/C (second compound 3.16 µM, first compound 0.3 µM) was 13.3%. It also gave a viability, T/C (second compound 3.16 µM, first compound 0.949 µM) of 1.34%, a viability, T/C (second compound 3.16 µM, first compound 3 µM) of 0.13% and a viability, T/C (second compound 10 µM, first compound 0.00949 µM) of 36.3%. For the same compound, the viability, T/C (second compound 10 µM, first compound 0.03 µM) was 22.1%, the viability, T/C (second compound 10 µM, first compound 0.0949 µM) was 12% and the viability, T/C (second compound 10 µM, first compound 0.3 µM) was 7.05%. For the same compound, the viability, T/C (second compound 10 µM, first compound 0.949 µM) was 0.48% and the viability, T/C (second compound 10 µM, first compound 3 µM) was 0.24%.
Work on `Cn1ncnc1C1c2n[nH]c(=O)c3cc(F)cc(c23)NC1c1ccc(F)cc1` (stereo not given) + NC1CC1c1ccc(-c2cccc(O)c2)cc1 yielded an IC50 (second compound 0.1 µM) greater than 100 nM, an IC50 (second compound 0.316 µM) of 49 nM and an IC50 (second compound 1 µM) of 48.1 nM. It also gave an IC50 (second compound 3.16 µM) of 51.5 nM, an IC50 (second compound 10 µM) of 0.479 nM and a viability, T/C (second compound 0.1 µM, first compound 0.000316 µM) of 86.3%. The viability, T/C (second compound 0.1 µM, first compound 0.001 µM) was 87.6%, the viability, T/C (second compound 0.1 µM, first compound 0.00316 µM) was 74.2% and the viability, T/C (second compound 0.1 µM, first compound 0.01 µM) was 77%. The viability, T/C (second compound 0.1 µM, first compound 0.0316 µM) was 62.4%, the viability, T/C (second compound 0.1 µM, first compound 0.1 µM) was 60.4% and the viability, T/C (second compound 0.316 µM, first compound 0.000316 µM) was 64.4%. It also gave a viability, T/C (second compound 0.316 µM, first compound 0.001 µM) of 61%, a viability, T/C (second compound 0.316 µM, first compound 0.00316 µM) of 60.6% and a viability, T/C (second compound 0.316 µM, first compound 0.01 µM) of 57.1%. It also gave a viability, T/C (second compound 0.316 µM, first compound 0.0316 µM) of 56.2%, a viability, T/C (second compound 0.316 µM, first compound 0.1 µM) of 42.7% and a viability, T/C (second compound 1 µM, first compound 0.000316 µM) of 62.4%. The viability, T/C (second compound 1 µM, first compound 0.001 µM) was 61.5%, the viability, T/C (second compound 1 µM, first compound 0.00316 µM) was 57.2% and the viability, T/C (second compound 1 µM, first compound 0.01 µM) was 51.2%. The viability, T/C (second compound 1 µM, first compound 0.0316 µM) was 53.5%, the viability, T/C (second compound 1 µM, first compound 0.1 µM) was 47.4% and the viability, T/C (second compound 3.16 µM, first compound 0.000316 µM) was 66.6%. For the same compound, the viability, T/C (second compound 3.16 µM, first compound 0.001 µM) was 69.4%, the viability, T/C (second compound 3.16 µM, first compound 0.00316 µM) was 67.4% and the viability, T/C (second compound 3.16 µM, first compound 0.01 µM) was 55.3%. It also gave a viability, T/C (second compound 3.16 µM, first compound 0.0316 µM) of 49.2%, a viability, T/C (second compound 3.16 µM, first compound 0.1 µM) of 48.7% and a viability, T/C (second compound 10 µM, first compound 0.000316 µM) of 51.9%. The viability, T/C (second compound 10 µM, first compound 0.001 µM) was 46.5%, the viability, T/C (second compound 10 µM, first compound 0.00316 µM) was 43% and the viability, T/C (second compound 10 µM, first compound 0.01 µM) was 42.5%. The viability, T/C (second compound 10 µM, first compound 0.0316 µM) was 33.1% and the viability, T/C (second compound 10 µM, first compound 0.1 µM) was 32.2%.
